Source: US7947741B2, “Use and administration of bacterial efflux pump inhibitors” (Mpex Pharmaceuticals, Inc., priority 2004, dated 2011)
Values after ≈ are worked out from the molar mass of the structure shown. Like-named read-outs stand apart in the source and are kept apart here. Where a SMILES comes first, the peptide text is derived from it. Bridges are numbered along the chain shown (N, C = ends). [ ]: non-standard residue; d: D form. Dab = NCC[C@H](N)C(=O)O

Assays:
PAM1723 cells = test: EtBr uptake (proton gradient disruption); assay type: cell-based, Pseudomonas aeruginosa; settings: CCCP 50 μg/ml for 15 minutes, pentamidine 80 μg/ml
Experimental: A proton gradient is necessary for efflux pump activity. Accordingly, compounds that are capable of proton gradient disruption will appear as efflux inhibitors in accumulation assays. This possibility was tested for pentamidine. EtBr is a substrate of the MexAB-OprM efflux pump from P. aeruginosa as evident from the differential rates of its uptake in PAM 1723 and PAM 1626, MexAB-OprM overexpressing or lacking strains, respectively. CCCP is a well-known protonophore, which rapidly dissipates the proton gradient.

[1] = system: P. aeruginosa PAM2302 (MexAB-OprM, MexCD-OprJ, MexEF-OprN); test: microbe, parasite or virus in culture; assay type: cell-based, Pseudomonas aeruginosa; settings: Pseudomonas aeruginosa
Experimental: (§1) A set of strains that simultaneously over-expressed pairs or triplicates of pumps, e.g. PAM2302 and PAM2303 was tested. Simultaneous over-expression of efflux pumps has been recently detected in clinical strains.

[2] = system: P. aeruginosa PAM2282 (MexAB-OprM, MexEF-OprN); test: microbe, parasite or virus in culture; assay type: cell-based, Pseudomonas aeruginosa; settings: Pseudomonas aeruginosa
Experimental: as §1

[3] = system: P. aeruginosa PAM2281 (MexAB-OprM, MexEF-OprN); test: microbe, parasite or virus in culture; assay type: cell-based, Pseudomonas aeruginosa; settings: Pseudomonas aeruginosa
Experimental: as §1

[4] = system: P. aeruginosa PAM2466 (MexAB-OprM, MexXY-OprM); test: microbe, parasite or virus in culture; assay type: cell-based, Pseudomonas aeruginosa; settings: Pseudomonas aeruginosa
Experimental: as §1

[5] = system: P. aeruginosa PAM1438 (MexAB-OprM, MexCD-OprJ); test: microbe, parasite or virus in culture; assay type: cell-based, Pseudomonas aeruginosa; settings: Pseudomonas aeruginosa
Experimental: as §1

[6] = system: P. aeruginosa PAM1154 (MexAB-OprM deleted); assay type: cell-based, Pseudomonas aeruginosa
[7] = system: P. aeruginosa PAM1723 (MexAB-OprM overexpressed); assay type: cell-based, Pseudomonas aeruginosa
[8] = system: P. aeruginosa PAM1034 (MexEF-OprN); test: microbe, parasite or virus in culture; assay type: cell-based, Pseudomonas aeruginosa; settings: Pseudomonas aeruginosa
From the text: (§2) In addition to increased efflux, resistance to fluoroquinolones may be due to target mutations (gyrase and topoisimerase IV) or due to combination of these two resistance mechanisms in a single bacterial cell.

[9] = system: P. aeruginosa PAM1033 (MexCD-OprJ); test: microbe, parasite or virus in culture; assay type: cell-based, Pseudomonas aeruginosa; settings: Pseudomonas aeruginosa
From the text: as §2

[10] = system: P. aeruginosa PAM1570 (MexEF-OprN; gyrA (Thr83Ile)); test: microbe, parasite or virus in culture; assay type: cell-based, Pseudomonas aeruginosa; settings: Pseudomonas aeruginosa
From the text: as §2

[11] = system: P. aeruginosa PAM1020 (pump status none; target mutation none); test: microbe, parasite or virus in culture; assay type: cell-based, Pseudomonas aeruginosa; settings: Pseudomonas aeruginosa
From the text: as §2

[12] = system: P. aeruginosa PAM1569 (MexCD-OprJ; gyrA (Thr83Ile)); test: microbe, parasite or virus in culture; assay type: cell-based, Pseudomonas aeruginosa; settings: Pseudomonas aeruginosa
From the text: as §2

[13] = system: P. aeruginosa PAM1548 (pump status none; gyrA (Thr83Ile)); test: microbe, parasite or virus in culture; assay type: cell-based, Pseudomonas aeruginosa; settings: Pseudomonas aeruginosa
From the text: as §2

[14] = system: P. aeruginosa PAM1491 (MexEF-OprN; gyrA (Asp87Tyr)); test: microbe, parasite or virus in culture; assay type: cell-based, Pseudomonas aeruginosa; settings: Pseudomonas aeruginosa
From the text: as §2

[15] = system: P. aeruginosa PAM1032 (MexAB-OprM); test: microbe, parasite or virus in culture; assay type: cell-based, Pseudomonas aeruginosa; settings: Pseudomonas aeruginosa
From the text: as §2

[16] = system: P. aeruginosa PAM1482 (MexCD-OprJ; gyrA (Asp87Tyr)); test: microbe, parasite or virus in culture; assay type: cell-based, Pseudomonas aeruginosa; settings: Pseudomonas aeruginosa
From the text: as §2

[17] = system: P. aeruginosa PAM1723 (nalB, overexpressing MexAB-OprM); test: microbe, parasite or virus in culture; assay type: cell-based, Pseudomonas aeruginosa; settings: Pseudomonas aeruginosa, read-out: Levofloxacin MIC in the presence of inhibitor, PAM1723; inhibitor 0 μg/ml
Experimental: Stock solutions were further diluted, according to the needs of a particular assay, in Mueller Hinton Broth (MHB). Stock solution was stored at −80° C.
The checkerboard assay was performed in microtiter plates. […] The result of these manipulations is that each well of the microtiter plate contains a unique combination of concentrations of the two agents. The assay was performed in MHB with a final bacterial inoculum of 5×10^5 CFU/ml (from an early-log phase culture). Microtiter plates were incubated during 20 h at 35° C. and were read using a microtiterplate reader (Molecular Devices) at 650 nm as well as visual observation using a microtiter plate reading mirror.
The test organisms used was PAM1020, which is a wild type strain of P. aeruginosa expressing the basal level of MexAB-OprM, as well as PAM1723, PAM1738, and PAM1753, overexpressing the MexAB-OprM, MexCD-OprJ, and MexEF-OprN pump, respectively.
Efflux pump inhibitory activity of several commercially available diamidine analogs was evaluated using the checkerboard assay of Example 1 against the strain of P. aeruginosa overexpressing the MexAB-OprM efflux pump.

[18] = system: 108 recent clinical isolates of P. aeruginosa obtained from cystic fibrosis patients; test: Susceptibility of cystic fibrosis clinical isolates (broth-micro-dilution, NCCLS); assay type: cell-based, Pseudomonas aeruginosa; settings: 108 CF isolates; combinations with 20 μg/ml of pentamidine
[19] = system: outer membrane of P. aeruginosa strain PAM2005; settings: Mg2+ free buffer, nitrocefin 64 μg/ml
[20] = read-out: Ciprofloxacin MIC w/o pentamidine
[21] = read-out: Levofloxacin MIC w/o pentamidine

## N#CC(C#N)=NNc1cccc(Cl)c1 [CCCP]
PAM1723 cells
  EtBr uptake: dramatic increase of EtBr uptake

## O=C(O)c1cn(C2CC2)c2cc(N3CCNCC3)c(F)cc2c1=O [Ciprofloxacin, ciprofloxacin]
[1]; [20]
  MIC: 2 µg/mL (≈ 6.04 µM)
[2]; [20]
  MIC: 2 µg/mL (≈ 6.04 µM)
[3]; [20]
  MIC: 8 µg/mL (≈ 24.1 µM)
[4]; [20]
  MIC: 0.5 µg/mL (≈ 1.51 µM)
[5]; [20]
  MIC: 16 µg/mL (≈ 48.3 µM)
[6]
  MIC, No Pentamidine: 0.008 µg/mL (≈ 0.0241 µM)
[7]; PAM1723 (MexAB-OprM overexpressed)
  MIC, No Pentamidine: 0.25 µg/mL (≈ 0.754 µM)
[7]; PAM1723 (MexAB-OprM overexpressed), in the presence of pentamidine 40 μg/ml
  MIC, Pentamidine (40 μg/ml): 0.03
[7]; PAM1723, pentamidine 40 μg/ml
  decrease of the MIC by pentamidine: 8 fold
[8]; [20]
  MIC: 1 µg/mL
[9]; [20]
  MIC: 1 µg/mL
[10]; [20]
  MIC: 16 µg/mL
[11]; [20]
  MIC: 0.06 µg/mL
[12]; [20]
  MIC: 16 µg/mL
[13]; [20]
  MIC: 2 µg/mL
[14]; [20]
  MIC: 8 µg/mL
[15]; [20]
  MIC: 0.5 µg/mL
[16]; [20]
  MIC: 8 µg/mL

## C[C@H]1COc2c(N3CCN(C)CC3)c(F)cc3c(=O)c(C(=O)O)cn1c23 [Levofloxacin, levofloxacin]
[17]
  MIC: 2 µg/mL
[1]; [21]
  MIC: 8 µg/mL (≈ 22.1 µM)
[2]; [21]
  MIC: 8 µg/mL (≈ 22.1 µM)
[3]; [21]
  MIC: 8 µg/mL (≈ 22.1 µM)
[4]; [21]
  MIC: 2 µg/mL (≈ 5.53 µM)
[5]; [21]
  MIC: 4 µg/mL (≈ 11.1 µM)
[18]
  MIC50: 2 µg/mL
  MIC90: 8 µg/mL
[8]; [21]
  MIC: 4 µg/mL
[9]; [21]
  MIC: 4 µg/mL
[10]; [21]
  MIC: 32 µg/mL
[11]; [21]
  MIC: 0.25 µg/mL
[12]; [21]
  MIC: 32 µg/mL
[13]; [21]
  MIC: 2 µg/mL
[14]; [21]
  MIC: 32 µg/mL
[15]; [21]
  MIC: 2 µg/mL
[16]; [21]
  MIC: 16 µg/mL

## CC(C)C[C@@H]1NC(=O)[C@@H](Cc2ccccc2)NC(=O)[C@H](CCN)NC(=O)[C@@H](NC(=O)[C@H](CCN)NC(=O)[C@@H](N)[C@@H](C)O)CCNC(=O)[C@H]([C@@H](C)O)NC(=O)[C@H](CCN)NC(=O)[C@H](CCN)NC1=O [PMBN] (H-T[Dab][Dab][Dab][dF]L[Dab][Dab]T; lactam 3-C; N-terminus assumed)
[19]
  IC50, permeabilization of the outer membrane: < 2 µg/mL
